In patent publication US12064517B1, “Polymer nanoparticle” (priority 2018, dated 2024):
Blank lines part the entries; values can stand above or below the compound they belong to.

What was measured:
[1] = test system: Human Lung Carcinoma A549; assay: Cell Titer-Glo Luminescent Cell Viability assay, antiproliferative activity, A549; assay type: cell-based; conditions: A549 cell line, 72 hours culture with test article, highest concentration 0.4 μM
Protocol: (§1) The antiproliferative activity was studied against human tumor cell lines, Human Lung Carcinoma A549 and Human Mammary Gland Adenocarcinoma MCF-7 with Promega's Cell Tier-Glo® Luminescent Cell Viability assay.
(§2) A preliminary cell titration was conducted to select the proper seeding density for the growth of these lines for the relevant time frames.
(§3) The tumor cells were seeded in a volume of 90 μL/well of growth medium into a white polystyrene 96-well microculture plate (Corning® Costar® 96-well flat bottom plate, Cat #3917). After 24 hours of incubation in a humidified incubator at 37° C., in an atmosphere of 5% CO2 and 95% air, 10 μL of 10 serially diluted test agent in growth medium were added to each well in duplicate (10 points dose response, highest concentration 0.4 μM, with a 1:2 dilution plus untreated control). After 72 hours of culture with test article, in a humidified incubator at the atmosphere of 5% CO2 and 95% air, the plate cells and Cell Titer-Glo® (Promega G7571) reagents were brought to room temperature to equilibrate for 30 minutes. 100 μL of Cell Titer-Glo® (Promega G7571) reagent was added to each well. The plates were shaken for two minutes and then left to equilibrate for ten minutes prior to reading luminescence on the Biotech Synergy II microplate reader. The IC50 results are listed in the following tables and are shown in graphs in FIG. 5 and FIG. 6.

[2] = test system: Human Mammary Gland Adenocarcinoma MCF-7; assay: Cell Titer-Glo Luminescent Cell Viability assay, antiproliferative activity, MCF-7; assay type: cell-based; conditions: MCF7, MCF-7 cell line, 72 hours culture with test article, highest concentration 0.4 μM
Protocol: as §1, §2, §3

[3] = Encapsulation of purpurin dye in nanogel, aqueous dispersion; assay type: physicochemical; conditions: 2 mg purpurin, 6 mg PEG diacrylate (MW 1000) β-cyclodextrin crosslinked nanogel, 3 ml di water, stirring overnight
Protocol: 6 mg of PEG diacrylate (MW 1000) β-cyclodextrin crosslinked nanogel was dispersed in 3 ml of di water, 2 mg of purpurin solid was added to the solution. The resulted mixture was stirring overnight.

[4] = native cyclodextrin; cited from earlier work

IC50 [1]: 5.98 nM | IC50 [2]: 1.06 nM
SMILES: CC(=O)O[C@H]1C(=O)[C@@]2(C)[C@H]([C@H](OC(=O)c3ccccc3)[C@]3(O)C[C@H](OC(=O)[C@H](O)[C@@H](NC(=O)c4ccccc4)c4ccccc4)C(C)=C1C3(C)C)[C@]1(OC(C)=O)CO[C@@H]1C[C@@H]2O [Paclitaxel Control, paclitaxel]

SMILES: O=C1c2ccccc2C(=O)c2c(O)c(O)cc(O)c21 [purpurin]
Aqueous dispersion of purpurin with nanogel [3]: dispersed in the aqueous as a transparent colloidal solution

SMILES: OC[C@H]1O[C@@H]2O[C@H]3[C@H](O)[C@@H](O)[C@@H](O[C@H]4[C@H](O)[C@@H](O)[C@@H](O[C@H]5[C@H](O)[C@@H](O)[C@@H](O[C@H]6[C@H](O)[C@@H](O)[C@@H](O[C@H]7[C@H](O)[C@@H](O)[C@@H](O[C@H]1[C@H](O)[C@H]2O)O[C@@H]7CO)O[C@@H]6CO)O[C@@H]5CO)O[C@@H]4CO)O[C@@H]3CO [α-cyclodextrin]
solubility [4]: 129.5 g/kg
